According to the supplement of paper PMC10307832:

What was measured:
Test in all cases: relative viability (nuclei count vs DMSO), 5 days (fraction); higher = more cells survive
Sorafenib + Trametinib = compound: CNC(=O)c1cc(Oc2ccc(NC(=O)Nc3ccc(Cl)c(C(F)(F)F)c3)cc2)ccn1 [Sorafenib] + CC(=O)Nc1cccc(-n2c(=O)n(C3CC3)c(=O)c3c(Nc4ccc(I)cc4F)n(C)c(=O)c(C)c32)c1 [Trametinib] (partner 0.02 µM)
How it was run: (§1)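 Each reported value is a median over duplicate plates. It expresses relative viability: treated-well nuclei count divided by vehicle-well nuclei count. Lung cancer cell lines in 1536-well plates were dosed by pin tool a day after seeding, alone with one drug or with a fixed anchor-drug dose plus five library-drug doses (not always all listed) in √10 steps, and nuclei were counted after 5 days.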

Sorafenib + Pemetrexed = compound: CNC(=O)c1cc(Oc2ccc(NC(=O)Nc3ccc(Cl)c(C(F)(F)F)c3)cc2)ccn1 [Sorafenib] + Nc1nc2[nH]cc(CCc3ccc(C(=O)N[C@@H](CCC(=O)O)C(=O)O)cc3)c2c(=O)[nH]1 [Pemetrexed] (partner 0.2 µM)
How it was run: as §1

Sorafenib + AZD7762 = compound: CNC(=O)c1cc(Oc2ccc(NC(=O)Nc3ccc(Cl)c(C(F)(F)F)c3)cc2)ccn1 [Sorafenib] + NC(=O)Nc1cc(-c2cccc(F)c2)sc1C(=O)N[C@H]1CCCNC1 [AZD7762] (partner 0.2 µM)
How it was run: as §1

Sorafenib + Phenformin = compound: CNC(=O)c1cc(Oc2ccc(NC(=O)Nc3ccc(Cl)c(C(F)(F)F)c3)cc2)ccn1 [Sorafenib] + N=C(N)NC(=N)NCCc1ccccc1 [Phenformin] (partner 250 µM)
How it was run: as §1

Sorafenib + Pictilisib = compound: CNC(=O)c1cc(Oc2ccc(NC(=O)Nc3ccc(Cl)c(C(F)(F)F)c3)cc2)ccn1 [Sorafenib] + CS(=O)(=O)N1CCN(Cc2cc3nc(-c4cccc5[nH]ncc45)nc(N4CCOCC4)c3s2)CC1 [Pictilisib] (partner 1 µM)
How it was run: as §1

| Cell Line | relative viability (Sorafenib + Trametinib; first compound 0.08 µM) | relative viability (Sorafenib + Trametinib; first compound 0.253 µM) | relative viability (Sorafenib + Trametinib; first compound 2.53 µM) | relative viability (Sorafenib + Trametinib; first compound 8 µM) | relative viability (Sorafenib + Pemetrexed; first compound 0.08 µM) | relative viability (Sorafenib + Pemetrexed; first compound 0.253 µM) | relative viability (Sorafenib + Pemetrexed; first compound 2.53 µM) | relative viability (Sorafenib + Pemetrexed; first compound 8 µM) | relative viability (Sorafenib + AZD7762; first compound 0.08 µM) | relative viability (Sorafenib + AZD7762; first compound 0.253 µM) | relative viability (Sorafenib + AZD7762; first compound 2.53 µM) | relative viability (Sorafenib + AZD7762; first compound 8 µM) | relative viability (Sorafenib + Phenformin; first compound 0.08 µM) | relative viability (Sorafenib + Phenformin; first compound 0.253 µM) | relative viability (Sorafenib + Phenformin; first compound 2.53 µM) | relative viability (Sorafenib + Phenformin; first compound 8 µM) | relative viability (Sorafenib + Pictilisib; first compound 0.08 µM) | relative viability (Sorafenib + Pictilisib; first compound 0.253 µM) | relative viability (Sorafenib + Pictilisib; first compound 2.53 µM) | relative viability (Sorafenib + Pictilisib; first compound 8 µM) |
| --- | --- | --- | --- | --- | --- | --- | --- | --- | --- | --- | --- | --- | --- | --- | --- | --- | --- | --- | --- | --- |
| NCI-H1437 | 0.59 | 0.389 | 0.533 | 0.342 | 0.335 | 0.312 | 0.268 | 0.184 | 1.23 | 1.05 | 1.13 | 0.539 | 0.301 | 0.299 | 0.302 | 0.306 | 0.483 | 0.393 | 0.364 | 0.238 |
| NCI-H1651 | 0.853 | 0.791 | 0.835 | 0.74 | 0.575 | 0.601 | 0.611 | 0.511 | 0.537 | 0.362 | 0.399 | 0.322 | 0.389 | 0.307 | 0.318 | 0.148 | 0.688 | 0.517 | 0.555 | 0.445 |
| NCI-H1666 | 0.954 | 0.764 | 0.762 | 0.639 | 0.916 | 0.856 | – | 0.62 | 0.865 | 0.778 | 0.797 | 0.719 | 0.562 | 0.546 | 0.544 | 0.452 | 0.497 | 0.407 | 0.451 | 0.331 |
| NCI-H1734 | 0.71 | 0.646 | 0.577 | 0.324 | 0.431 | 0.415 | – | 0.374 | 0.572 | 0.497 | 0.505 | – | 0.459 | 0.362 | 0.411 | 0.236 | 0.465 | 0.469 | 0.471 | 0.248 |
| NCI-H1755 | 0.8 | 0.761 | 0.71 | 0.557 | – | 0.385 | 0.419 | 0.355 | 0.474 | 0.383 | 0.504 | 0.312 | 0.569 | – | 0.624 | 0.534 | 0.466 | 0.422 | 0.417 | 0.263 |
| NCI-H1792 | 0.527 | 0.461 | 0.421 | 0.177 | 0.97 | 0.527 | 0.578 | 0.567 | 0.674 | 0.483 | 0.442 | 0.425 | 0.199 | 0.309 | 0.234 | 0.181 | 0.34 | 0.23 | 0.278 | 0.39 |
| NCI-H1793 | 0.398 | 0.429 | 0.325 | 0.253 | 1.24 | – | 1.11 | 0.529 | 0.926 | 0.306 | 0.385 | 0.146 | 0.453 | 0.329 | 0.418 | 0.293 | 0.313 | 0.333 | 0.256 | 0.195 |
| NCI-H1915 | 0.322 | 0.289 | 0.204 | 0.125 | 0.423 | 0.45 | 0.433 | 0.504 | 0.722 | 0.51 | 0.558 | 0.669 | 0.357 | 0.33 | 0.359 | 0.341 | 0.875 | 0.911 | 0.958 | 0.866 |
| NCI-H1944 | 0.384 | 0.436 | 0.367 | 0.253 | 0.697 | 0.557 | 0.735 | 0.438 | 0.584 | 0.453 | 0.679 | 0.31 | 0.207 | 0.188 | 0.21 | 0.144 | 0.368 | 0.332 | 0.365 | 0.274 |
| NCI-H1975 | 0.526 | 0.32 | 0.291 | 0.242 | 0.3 | 0.285 | 0.294 | 0.209 | 0.807 | 0.633 | 0.803 | 0.809 | 0.462 | 0.403 | 0.429 | 0.341 | 0.312 | 0.308 | 0.376 | 0.286 |
| NCI-H1993 | 0.515 | 0.521 | 0.529 | 0.506 | 0.566 | 0.597 | 0.528 | 0.43 | 0.793 | 0.763 | 0.913 | 0.397 | 0.516 | 0.51 | 0.499 | 0.499 | 0.833 | 0.788 | 0.707 | 0.677 |
| NCI-H2085 | 0.643 | 0.464 | 0.43 | 0.391 | 1.02 | 0.98 | 1.15 | 0.762 | 1.04 | 0.874 | 1.03 | 0.604 | – | 0.623 | 0.756 | 0.48 | 0.541 | 0.444 | 0.549 | 0.481 |
| NCI-H2087 | 0.19 | 0.233 | 0.199 | 0.15 | 0.694 | 0.622 | 0.61 | 0.239 | 1.39 | 1.08 | 1.02 | 0.264 | 0.467 | 0.403 | 0.389 | 0.14 | 1.02 | 0.787 | 0.609 | 0.349 |
| NCI-H2126 | 0.581 | 0.541 | 0.623 | 0.589 | 0.763 | 0.672 | 0.681 | 0.706 | 1.01 | 1.01 | 1.07 | 0.982 | 0.539 | 0.529 | 0.603 | 0.501 | 0.498 | 0.505 | 0.618 | 0.54 |
| NCI-H2170 | 0.896 | 0.805 | 0.99 | 0.804 | 0.258 | 0.278 | 0.27 | 0.208 | – | 0.816 | 0.824 | 0.819 | 0.403 | 0.437 | 0.43 | 0.361 | 0.323 | 0.348 | 0.369 | 0.255 |
| NCI-H2347 | 0.3 | 0.308 | 0.266 | 0.314 | 0.442 | 0.398 | 0.425 | 0.413 | 0.784 | 0.664 | 0.636 | 0.47 | 0.519 | 0.398 | 0.351 | 0.326 | 0.956 | 0.479 | 0.641 | 0.493 |
